Measurements taken from publication PMC6331789, “Phytochemicals from Ruta graveolens Activate TAS2R Bitter Taste Receptors and TRP Channels Involved in Gustation and Nociception” (Molecules, 2015).
pEC50: −log10 of the molar value.

Columns and labels:
TRPM8 [1] = conditions: cited from earlier work
TAS2R14 [2] = target: T1, TAS2R14 (Homo sapiens, UniProt Q9NYV8); experiment: In vitro calcium imaging assay on cloned TAS2R14 in transfected HEK293T cells; type: cell-based
T1 construct: expressed in transfected cells; host or cells: HEK293T
T1 sequence (Q9NYV8 1-317): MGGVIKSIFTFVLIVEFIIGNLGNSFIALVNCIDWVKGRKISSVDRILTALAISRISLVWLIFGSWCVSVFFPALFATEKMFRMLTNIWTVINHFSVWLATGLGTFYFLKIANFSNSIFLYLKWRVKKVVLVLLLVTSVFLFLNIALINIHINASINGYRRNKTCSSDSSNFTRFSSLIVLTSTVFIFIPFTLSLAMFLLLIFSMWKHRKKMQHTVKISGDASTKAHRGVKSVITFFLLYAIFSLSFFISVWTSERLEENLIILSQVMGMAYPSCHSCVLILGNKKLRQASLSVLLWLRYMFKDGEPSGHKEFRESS
Source text: (§1) Pure phytochemicals were submitted to in vitro assays with a platform of twenty cloned receptors of the bitter taste TAS2R family and four receptors of the TRP family related to the perception of taste and somatosensory sensations. All experiments have been repeated three times, each time with four replicates. […] For simplicity, only those bitter taste receptors having reproducible positive assay, namely TASR10, 14 and 49, are reported (Table 1).
(§2) For those compounds showing activity on one or more receptor(s), the concentration/response curves were plotted and the EC50 calculated.
(§3) For the biological tests, several compounds were purchased as references from different suppliers (Sigma Aldrich, ChromaDex, Irvine, CA, USA, and Tocris Bioscience, Bristol, UK) and dissolved in assay buffer (130 mM NaCl, 5 mM KCl, 1 mM MgCl2, 2 mM CaCl2, 5 mM NaHCO3 and 20 mM HEPES, pH 7.4) or in a mixture of assay buffer and DMSO, never exceeding a final DMSO concentration of 0.5% (v/v) to avoid toxic effects and possible artefacts on transfected cells.
(§4) All human TAS2R and G15Gi1 cDNAs were produced as reported in Bassoli et al. cDNAs for human TRPA1-M5-M8-V1-V4 were cloned into a pcDNA6 expression vector (Invitrogen-Thermo Fisher, Waltham, MA, USA).
(§5) All experiments were performed using HEK293T cells (ATCC).
(§6) For the bitter platform experiments, cells were cultured, transfected and analyzed as previously described.
(§7) For the bitter platform experiments, data analyses were performed as previously described.
(§8) For the calculation of concentration-response curves, responses were calculated as the difference between maximal and minimal relative fluorescence unit (RFU) values in a selected time window (11–60 s) and were normalized to the basal well fluorescence (Time Point 1, before compound injection) in order to compensate for differences in cell density (∆F/F0). All of the experiments have been repeated three times, each time with four replicates. All of the results are averages of at least four replicates. Raw data are available in Supplementary Material, Figures S3–S6.

TRPM5 = target: T2, TRPM5 (Homo sapiens, UniProt Q9NZQ8); experiment: In vitro membrane potential dye assay (FLIPR) on HEK293T cells stably overexpressing TRPM5; type: cell-based; conditions: concentration/response curve; values with ≥ estimated
T2 construct: expressed in transfected cells
T2 sequence (Q9NZQ8 1-1165): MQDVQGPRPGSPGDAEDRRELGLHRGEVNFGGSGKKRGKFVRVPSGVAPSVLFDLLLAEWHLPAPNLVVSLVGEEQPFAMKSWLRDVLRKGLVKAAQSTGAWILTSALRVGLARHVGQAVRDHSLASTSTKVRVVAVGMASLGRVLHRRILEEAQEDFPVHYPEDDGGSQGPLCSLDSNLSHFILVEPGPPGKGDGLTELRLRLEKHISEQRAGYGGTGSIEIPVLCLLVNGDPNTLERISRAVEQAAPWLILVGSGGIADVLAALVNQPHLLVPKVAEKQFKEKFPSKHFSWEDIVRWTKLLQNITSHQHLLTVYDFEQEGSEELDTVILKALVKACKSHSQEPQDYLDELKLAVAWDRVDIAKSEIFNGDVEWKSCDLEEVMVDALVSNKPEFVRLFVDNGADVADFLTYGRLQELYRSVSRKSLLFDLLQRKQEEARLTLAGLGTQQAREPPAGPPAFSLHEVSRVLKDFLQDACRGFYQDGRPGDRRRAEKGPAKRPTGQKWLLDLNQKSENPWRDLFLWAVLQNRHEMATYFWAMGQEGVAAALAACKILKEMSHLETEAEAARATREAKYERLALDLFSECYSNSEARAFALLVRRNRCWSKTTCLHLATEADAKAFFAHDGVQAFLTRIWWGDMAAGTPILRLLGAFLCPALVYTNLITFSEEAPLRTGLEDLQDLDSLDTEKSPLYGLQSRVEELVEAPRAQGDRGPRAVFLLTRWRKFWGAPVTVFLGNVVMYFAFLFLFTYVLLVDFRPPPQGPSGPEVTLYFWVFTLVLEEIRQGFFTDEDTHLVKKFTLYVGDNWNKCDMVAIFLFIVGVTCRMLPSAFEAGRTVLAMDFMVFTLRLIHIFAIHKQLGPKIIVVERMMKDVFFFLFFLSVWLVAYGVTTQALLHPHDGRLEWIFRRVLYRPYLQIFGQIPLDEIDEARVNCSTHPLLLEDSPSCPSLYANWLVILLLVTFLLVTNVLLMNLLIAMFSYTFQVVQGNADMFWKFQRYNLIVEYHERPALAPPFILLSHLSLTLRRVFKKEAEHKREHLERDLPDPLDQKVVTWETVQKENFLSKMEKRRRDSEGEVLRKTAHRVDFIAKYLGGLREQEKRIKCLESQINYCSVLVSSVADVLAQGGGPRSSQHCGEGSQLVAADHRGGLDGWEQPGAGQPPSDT
Source text: as §1, §2, §3, §4, §5
(§9) For TRP platform experiments, cells were cultured in MEM/EBSS medium (ECB2071L EuroClone, Milan, Italy) plus 10% (v/v) fetal bovine serum (FBS) (26400-044 Gibco, Karlsruhe, Germany) and 1% (v/v) Pen/Strep 10K/10K stock (17-602E Lonza, Basel, Switzerland). Stable cell lines were generated overexpressing each TRP channel, and clones were selected with 500 µg/mL of G418 (ant-gn-5 Invivogen, Karlsruhe, Germany). To analyze TRP receptor responses, cells were plated at a concentration of 20,000 cells/well in 384-well plates (GR-4330 Twin Helix srl, Milan, Italy). Cellular responses were measured 24 h after seeding.
(§10) For TRPM5 experiments, cells were loaded 24 h after seeding with a Membrane Potential Dye (R8034 MDC) solution in assay buffer according to the manufacturer’s instructions and incubated at 37 °C for 1 h before acquisition. All experiments were performed using a fluorometric imaging plate reader (FLIPR^TETRA, Molecular Devices equipped with ICCD Camera from Stanford Photonics, INC, (Palo Alto, CA, USA) and kinetics were visualized with Molecular Devices’ Screenworks 3.0 (Sunnyvale, CA, USA).
as §8

TAS2R14 [3] = conditions: cited from earlier work
TAS2R10 [4] = conditions: cited from earlier work; for Selective agonism of TAS2R10 (literature): described in the literature, no reference given
TAS2R10 [5] = target: T3, TAS2R10 (Homo sapiens, UniProt Q9NYW0); experiment: In vitro calcium imaging assay on cloned TAS2R10 in transfected HEK293T cells; type: cell-based; conditions: concentration/response curve; values with ≥ estimated, curve did not saturate; read-out: EC50 TAS2R10
T3 construct: expressed in transfected cells; host or cells: HEK293T
T3 sequence (Q9NYW0 1-307): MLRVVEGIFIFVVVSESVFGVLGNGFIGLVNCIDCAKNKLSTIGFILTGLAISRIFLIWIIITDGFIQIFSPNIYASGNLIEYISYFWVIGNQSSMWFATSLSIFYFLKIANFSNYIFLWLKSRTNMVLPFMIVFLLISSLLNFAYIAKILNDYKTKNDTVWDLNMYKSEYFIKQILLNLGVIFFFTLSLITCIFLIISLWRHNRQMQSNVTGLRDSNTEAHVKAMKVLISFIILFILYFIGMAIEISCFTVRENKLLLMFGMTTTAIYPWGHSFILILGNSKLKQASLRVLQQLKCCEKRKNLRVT
Source text: as §1, §2, §3, §4, §5, §6, §7, §8

TAS2R49 [6] = target: T4, TAS2R49 (Homo sapiens, UniProt P59543); experiment: In vitro calcium imaging assay on cloned TAS2R49 in transfected HEK293T cells; type: cell-based; conditions: concentration/response curve; read-out: EC50 TAS2R49
T4 construct: expressed in transfected cells; host or cells: HEK293T
T4 sequence (P59543 1-309): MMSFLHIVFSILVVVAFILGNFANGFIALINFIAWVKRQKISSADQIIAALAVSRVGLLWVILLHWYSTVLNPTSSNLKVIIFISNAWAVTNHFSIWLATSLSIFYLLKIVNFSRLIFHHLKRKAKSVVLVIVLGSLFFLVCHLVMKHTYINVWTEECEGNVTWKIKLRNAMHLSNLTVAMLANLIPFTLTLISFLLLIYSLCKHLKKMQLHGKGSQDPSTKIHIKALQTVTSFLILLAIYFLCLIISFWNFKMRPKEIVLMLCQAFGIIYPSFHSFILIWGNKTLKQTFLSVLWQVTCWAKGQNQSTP
Source text: as §1, §2, §3, §4, §5, §6, §7, §8

TRPM8 [7] = target: T5, TRPM8 (Homo sapiens, UniProt Q7Z2W7); experiment: In vitro Fluo8-NW calcium assay (FLIPR) on HEK293T cells stably overexpressing TRPM8; type: cell-based; conditions: concentration/response curve
T5 construct: expressed in transfected cells
Source text: as §1, §2, §3, §4, §5, §9
For TRPA1-M8-V1-V4 experiments, a solution of Fluo8-NW calcium-sensitive dye (36316 AAT BioQuest, Sunnyvale, CA, USA) was prepared using the assaybuffer and diluting the kit components 1:2 according to the manufacturer’s instructions. Twenty-four hours after seeding, cells were incubated one hour at RT, loaded with 40 µL of Fluo8-NW solution for each well and incubated again for one hour at RT before data acquisition.
as §10, §8

TAS2R49 [8] = system: TAS2R49; parameters: method as in PMID 20022913; conditions: cited from earlier work
bitter taste receptor = system: bitter taste receptor; parameters: method as in PMID 24117141; conditions: cited from earlier work

T5 sequence (Q7Z2W7 whole entry): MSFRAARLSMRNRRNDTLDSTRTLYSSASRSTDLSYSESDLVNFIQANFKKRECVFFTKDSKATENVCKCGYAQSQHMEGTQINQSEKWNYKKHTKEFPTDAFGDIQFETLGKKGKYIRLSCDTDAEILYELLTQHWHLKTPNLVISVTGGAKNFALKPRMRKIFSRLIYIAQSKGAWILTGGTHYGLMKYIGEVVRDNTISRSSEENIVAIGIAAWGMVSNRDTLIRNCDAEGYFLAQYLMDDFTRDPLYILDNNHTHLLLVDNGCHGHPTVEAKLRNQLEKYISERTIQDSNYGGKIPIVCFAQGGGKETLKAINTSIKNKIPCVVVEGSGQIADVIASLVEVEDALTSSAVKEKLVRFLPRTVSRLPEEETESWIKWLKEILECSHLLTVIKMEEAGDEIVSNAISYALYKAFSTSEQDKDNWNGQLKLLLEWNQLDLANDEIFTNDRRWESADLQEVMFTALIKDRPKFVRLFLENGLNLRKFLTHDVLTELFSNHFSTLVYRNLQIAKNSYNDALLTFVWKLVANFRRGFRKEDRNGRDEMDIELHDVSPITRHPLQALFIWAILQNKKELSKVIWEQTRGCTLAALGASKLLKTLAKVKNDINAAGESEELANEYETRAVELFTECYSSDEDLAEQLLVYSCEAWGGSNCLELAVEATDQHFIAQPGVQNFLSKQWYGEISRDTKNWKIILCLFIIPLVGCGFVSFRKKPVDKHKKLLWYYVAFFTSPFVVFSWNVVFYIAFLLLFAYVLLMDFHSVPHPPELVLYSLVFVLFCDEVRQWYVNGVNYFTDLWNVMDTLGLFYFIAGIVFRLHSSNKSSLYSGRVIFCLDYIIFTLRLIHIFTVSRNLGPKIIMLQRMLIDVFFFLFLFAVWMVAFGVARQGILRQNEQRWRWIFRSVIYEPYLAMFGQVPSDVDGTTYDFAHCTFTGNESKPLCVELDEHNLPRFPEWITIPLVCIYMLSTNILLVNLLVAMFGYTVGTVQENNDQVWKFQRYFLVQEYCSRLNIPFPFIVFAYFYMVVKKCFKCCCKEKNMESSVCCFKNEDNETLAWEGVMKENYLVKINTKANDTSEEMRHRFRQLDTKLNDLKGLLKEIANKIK

Structure (SMILES): CC[C@H]1CC2CN3CCc4c([nH]c5ccc(OC)cc45)[C@](C(=O)OC)(C2)[C@H]13 (stereo in doubt) [voacangine]
- TRPM8 inhibition (literature) (TRPM8 [1]): potent TRPM8 inhibitor

Structure (SMILES): COc1cccc2c1cc([N+](=O)[O-])c1c(C(=O)O)cc3c(c12)OCO3 [Aristolochic Acid, reference compound]
- pEC50 (TAS2R14 [2]): 5.64

Structure (SMILES): C[N+](C)(C)CCOC(N)=O [Carbachol, reference compound]
- pEC50 (TRPM5): 5.37

Structure (SMILES): O=c1ccc2ccccc2o1 [Coumarin]
- Agonism of TAS2R14 (literature) (TAS2R14 [3]): known agonist
- Agonism of TAS2R10 (literature) (TAS2R10 [4]): known agonist

Structure (SMILES): CC[N+](CC)(CC(=O)Nc1c(C)cccc1C)Cc1ccccc1 [Denatonium Benzoate, reference compound]
- pEC50 (TAS2R10 [5]): 5.08

Structure (SMILES): Cc1nc2sccn2c(=O)c1CCN1CCC(=C(c2ccc(F)cc2)c2ccc(F)cc2)CC1 [Ritanserin, reference compound]
- pEC50 (TAS2R49 [6]): 5.22

Structure (SMILES): CCNC(=O)C1CC(C)CCC1C(C)C (stereo not drawn) [WS3, reference compound]
- pEC50 (TRPM8 [7]): 5.40

Structure (SMILES): O=C(O)c1cc(=O)c2c(OCC(O)COc3cccc4oc(C(=O)O)cc(=O)c34)cccc2o1 [cromolyn]
- Agonism of TAS2R49 (literature) (TAS2R49 [8]): non-selective agonists

Structure (SMILES): CC(=O)OC(C)(C)/C=C/C(=O)[C@](C)(O)[C@H]1[C@H](O)C[C@@]2(C)[C@@H]3CC=C4[C@@H](C=C(O)C(=O)C4(C)C)[C@]3(C)C(=O)C[C@]12C [cucurbitacin E]
- Selective agonism of TAS2R10 (literature) (TAS2R10 [4]): selective agonists

Structure (SMILES): OC(CCCN1CCCCC1)(c1ccccc1)c1ccccc1 [diphenidol]
- Agonism of TAS2R49 (literature) (TAS2R49 [8]): non-selective agonists

Structure (SMILES): CC[C@H]1OC(=O)[C@H](C)[C@@H](O[C@H]2C[C@@](C)(OC)[C@@H](O)[C@H](C)O2)[C@H](C)[C@@H](O[C@@H]2O[C@H](C)C[C@H](N(C)C)[C@H]2O)[C@](C)(O)C[C@@H](C)C(=O)[C@H](C)[C@@H](O)[C@]1(C)O [erythromycin]
- Selective agonism of TAS2R10 (literature) (TAS2R10 [4]): selective agonists

Structure (SMILES): O=c1cc(-c2ccc(O)c(O)c2)oc2cc(O)cc(O)c12 [luteolin]
- Bitter taste receptor activation of flavonoids (literature) (bitter taste receptor): active

Structure (SMILES): COc1ccc2c(c1OC)C(=O)O[C@@H]2[C@H]1c2c(cc3c(c2OC)OCO3)CCN1C [noscapine]
- Selective agonism of TAS2R14 (literature) (TAS2R14 [3]; described in the literature, no reference given): selective agonist

Structure (SMILES): O=c1c(O)c(-c2ccc(O)c(O)c2)oc2cc(O)cc(O)c12 [quercetin]
- Bitter taste receptor activation of flavonoids (literature) (bitter taste receptor): still active, but with lower efficacy
